Assay results from patent publication US20230286978A1, “INDAZOLE DERIVATIVES AS INHIBITORS OF SARM1” (Disarm Therapeutics, Inc., priority 2020, published 2023).

Target: SARM1 (Homo sapiens (Human), UniProt Q6SZW1)
Test: ARM-SAM-TIR SARM1 IC50 assay (NADase activity, RapidFire mass spectrometry)
Assay type: biochemical
Settings: ARM-SAM-TIR lysate 5 µg/mL, 2 h pre-incubation with compound, 5 µM NAD+, 2 hr at room temperature
Source text: This Example describes an assay of ARM-SAM-TIR NADase activity and use of this assay to measure the efficacy of compounds of Formula I/II to block SARM1 mediated NAD+ cleavage. This assay was optimized in such a way as to characterize the efficacy of the compounds in Formula I/IIto inhibit SARM1 activity and to calculate an IC50 value for each compound. This assay makes use of […], which encompasses the ARM, SAM and TIR domains. […] The next day, the cells were transfected with 15 μg ARM-SAM-TIR expression plasmid, SEQ ID NO: 1. The cultures were supplemented with 1 mM NR at time of transfection to minimize toxicity from ARM-SAM-TIR overexpression. Forty-eight hours after transfection, cells were harvested, pelleted by centrifugation at 1,000 rpm (Sorvall ST 16R centrifuge, Thermo Fisher), and washed once with cold PBS (0.01 M phosphate buffered saline NaCl 0.138 M; KCl 0.0027 M; pH 7.4). The cells were resuspended in PBS with protease inhibitors (cOmpleteTM protease inhibitor cocktail, Roche product # 11873580001) and cell lysates were prepared by sonication (Branson Sonifer 450, output = 3, 20 episodes of stroke). The lysates were centrifuged (12,000×g for 10 min at 4° C.) to remove cell debris and the supernatants (containing ARM-SAM-TIR protein) were stored at -80° C. for later use in the in vitro ARM-SAM-TIR NADase assay (see below). Protein concentration was determined by the Bicinchoninic (BCA) method and used to normalize lysate concentrations. The enzymatic assay was performed in a 384-well polypropylene plate in Dulbecco's PBS buffer in a final assay volume of 20 μL. […] The reaction was initiated by addition of 5 μM final assay concentration of NAD+ as substrate. After a 2 hr room temperature incubation, the reaction was terminated with 40 μL of stop solution of 7.5% trichloroactetic acid in acetonitrile. The NAD+ and ADPR concentrations were analyzed by a RapidFire High Throughput Mass Spectrometry System (Agilent Technologies, Santa Clara, CA) using an API4000 triple quadrupole mass spectrometer (AB Sciex Framingham, MA).

Sequence of SARM1 (Q6SZW1 other isoform, or with tags, fused parts or gaps): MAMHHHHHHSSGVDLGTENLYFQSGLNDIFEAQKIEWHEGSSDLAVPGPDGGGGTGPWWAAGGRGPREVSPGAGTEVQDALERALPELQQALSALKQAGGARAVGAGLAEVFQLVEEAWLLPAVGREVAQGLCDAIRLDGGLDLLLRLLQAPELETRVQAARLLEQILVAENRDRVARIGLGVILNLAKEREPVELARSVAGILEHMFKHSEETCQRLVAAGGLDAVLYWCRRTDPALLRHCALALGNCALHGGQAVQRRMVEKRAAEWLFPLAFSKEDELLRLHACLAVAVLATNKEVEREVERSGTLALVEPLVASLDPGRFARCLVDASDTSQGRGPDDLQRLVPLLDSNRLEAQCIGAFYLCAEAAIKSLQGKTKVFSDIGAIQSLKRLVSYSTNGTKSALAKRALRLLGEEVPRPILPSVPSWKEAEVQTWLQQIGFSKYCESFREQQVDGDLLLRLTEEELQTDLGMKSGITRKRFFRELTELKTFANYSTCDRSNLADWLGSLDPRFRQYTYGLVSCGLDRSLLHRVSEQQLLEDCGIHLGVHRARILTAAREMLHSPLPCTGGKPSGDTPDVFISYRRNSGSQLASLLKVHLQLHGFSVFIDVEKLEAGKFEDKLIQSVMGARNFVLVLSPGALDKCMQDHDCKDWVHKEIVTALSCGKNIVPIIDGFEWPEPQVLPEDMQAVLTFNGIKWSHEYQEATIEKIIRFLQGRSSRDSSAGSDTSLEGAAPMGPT

Structure (SMILES)	IC50 [nM]
O=C(NCc1ccc(Cl)cc1)c1cccc2c(-c3ccncc3)n[nH]c12 [Example 1]	< 100
O=C(NCc1ccccc1)c1cccc2c(-c3ccncc3)n[nH]c12 [Example 2]	100 to 1000
O=C(NCc1ccc(Cl)cc1)c1cncc2c(-c3ccncc3)n[nH]c12 [Example 4]	< 100
O=C(NCc1ccc(Cl)cc1)c1ccnc2c(-c3ccncc3)n[nH]c12 [Example 5]	< 100
O=C(NCc1ccccc1)c1cncc2c(-c3ccncc3)n[nH]c12 [Example 6]	100 to 1000
O=C(NCc1ccccc1)c1ccnc2c(-c3ccncc3)n[nH]c12 [Example 7]	1010 to 5000
C[C@H](NC(=O)c1cccc2c(-c3ccncc3)n[nH]c12)c1ccc(Cl)cc1 [Example 8]	> 10000
O=C(NCc1ccc(Cl)nc1)c1cccc2c(-c3ccncc3)n[nH]c12 [Example 9]	100 to 1000
O=C(NCc1ccc(Cl)cc1)c1cccc2c(-c3ccncc3F)n[nH]c12 [Example 10]	< 100
O=C(NCc1ccc(Cl)c(F)c1)c1cccc2c(-c3ccncc3F)n[nH]c12 [Example 12]	< 100
O=C(NCc1ccc(Cl)s1)c1cccc2c(-c3ccncc3F)n[nH]c12 [Example 13]	100 to 1000
